The source of these data is patent US7217409B2, “Alkanoic acid derivatives” (SmithKline Beecham Corporation, priority 2000, dated 2007).

Data set [1] can be described thus: Mean particle size of salmeterol xinafoate/HFA 134a suspension by image analysis (Galai CIS-100 particle size analyser). Format: physicochemical. To be noted: for Mean Length: salmeterol xinafoate in HFA 134a, 25 μg per actuation, 10% w/w (relative to drug) of surfactant compound, crimped glass bottles, equivalent diameter, average of 4 determinations; for spread of the range of particles size: salmeterol xinafoate in HFA 134a with 10% w/w surfactant compound, versus control without surfactant. The method, then:
Salmeterol xinafoate formulations in HFA 134a, of strength 25 μg per actuation, and 10% w/w (relative to drug) of the relevant surfactant compound of formula (I) were prepared in crimped glass bottles using salmeterol xinafoate (8.7 mg), HFA 134a (18 g) and the relevant compound (0.87 mg). The control was prepared without the addition of a surfactant. […] In this measurement, particle size is represented as the equivalent diameter of a circle of equal area to the object. The mean is the average of 4 determinations. The particle size measurement was obtained by transferring the suspensions to a pressurised cell, and video-imaging the sample under shear via a microscope objective. The equivalent diameter is defined as the diameter of a circle of equal area to the object.
The mean equivalent diameter can be weighted by number, length or volume. e.g. For three particles with equivalent diameters of x, y and z:
This is seen by the marked reduction in average particle size (“mean length”) when a compound of formula (I) is incorporated into the formulation. Futhermore the spread of the range of particles size was reduced in some cases (especially Examples 5 and 7).

The nature of data set [2]: Emitted dose and fine particle mass by Anderson Cascade Impactor stack. Conditions: salmeterol xinafoate in HFA 134a, 25 μg per actuation, 10% w/w surfactant compound, aluminum canisters; beginning of use; mean of two determinations. Format: physicochemical. As for the experimental part: Data were obtained at the beginning of use of the device. Salmeterol xinafoate formulations in HFA 134a, of strength 25 μg per actuation, and 10% w/w (relative to drug) of the relevant surfactant compound of formula (I) were prepared in standard aluminum canisters. Control 1 was prepared at the same time as samples containing examples 2, 5, 6 and 7 whereas control 2 was prepared separately. The analysis of aerosol formulations using such stacks is well known to person skilled in the art. The results are presented as the mean of two determinations.
These samples also show an increase in the absolute value of the FPM fraction in most cases.

Regarding `COCCOCCOCCOCCOCCOCCOCC(=O)O` [Example 2, 2,5,8,11,14,17,20-Heptaoxadocosan-22-oic acid], the “Mean Length” value in data set [1] is on record as 27.1 μm. In data set [2], the “% FPM” value worked out at 38.8%; the “FPM (fine particle mass, sum of stages 3 to 5)” value was 8.7 µg; the “Total Dose Emitted” value was 22.4 µg; the “Total Emitted Ex-Device” value came out at 18.8 µg.

For `O=C(O)COCCOCCOCCOCCOCCOCCOCC(F)(F)F` [Example 5, 23,23,23-Trifluoro-3,6,9,12,15,18,21-heptaoxatricosan-1-oic acid], in data set [1], the “spread of the range of particles size” value was “reduced” and the “Mean Length” value is recorded as 23.8 μm. Moreover, in data set [2], the “% FPM” value was 37.2%; the “FPM (fine particle mass, sum of stages 3 to 5)” value amounted to 8.6 µg; the “Total Dose Emitted” value was found to be 23.0 µg; the “Total Emitted Ex-Device” value came out at 19.4 µg.

Turning to `O=C(O)COCCOCCOCC(F)(F)F` [Example 6, {[2-({2-[(2,2,2-Trifluoroethyl)oxy]ethyl}oxy)ethyl]oxy}acetic acid], the “Mean Length” value in data set [1] is recorded as 23.7 μm. For the same compound, in data set [2], the “% FPM” value stood at 33.2%; the “FPM (fine particle mass, sum of stages 3 to 5)” value came to 7.1 µg; the “Total Dose Emitted” value turned out to be 21.4 µg; the “Total Emitted Ex-Device” value was determined as 17.9 µg.

With `COCCOCCOCCOCCOCCOCCOCCOCCOCCOCC(=O)O` [Example 7, 2,5,8,11,14,17,20,23,26,29-Decaoxahentriacontan-31-oic acid], in data set [1], the “spread of the range of particles size” value is given as “reduced” and the “Mean Length” value was 28.6 μm. Further, in data set [2], the “% FPM” value amounted to 38.7%; the “FPM (fine particle mass, sum of stages 3 to 5)” value was 8.5 µg; the “Total Dose Emitted” value worked out at 21.9 µg; the “Total Emitted Ex-Device” value came to 18.4 µg.
